# Target: T1, cAMP and cAMP-inhibited cGMP 3',5'-cyclic phosphodiesterase 10A (Rattus norvegicus, UniProt Q9QYJ6)
# T1 sequence (Q9QYJ6 whole entry): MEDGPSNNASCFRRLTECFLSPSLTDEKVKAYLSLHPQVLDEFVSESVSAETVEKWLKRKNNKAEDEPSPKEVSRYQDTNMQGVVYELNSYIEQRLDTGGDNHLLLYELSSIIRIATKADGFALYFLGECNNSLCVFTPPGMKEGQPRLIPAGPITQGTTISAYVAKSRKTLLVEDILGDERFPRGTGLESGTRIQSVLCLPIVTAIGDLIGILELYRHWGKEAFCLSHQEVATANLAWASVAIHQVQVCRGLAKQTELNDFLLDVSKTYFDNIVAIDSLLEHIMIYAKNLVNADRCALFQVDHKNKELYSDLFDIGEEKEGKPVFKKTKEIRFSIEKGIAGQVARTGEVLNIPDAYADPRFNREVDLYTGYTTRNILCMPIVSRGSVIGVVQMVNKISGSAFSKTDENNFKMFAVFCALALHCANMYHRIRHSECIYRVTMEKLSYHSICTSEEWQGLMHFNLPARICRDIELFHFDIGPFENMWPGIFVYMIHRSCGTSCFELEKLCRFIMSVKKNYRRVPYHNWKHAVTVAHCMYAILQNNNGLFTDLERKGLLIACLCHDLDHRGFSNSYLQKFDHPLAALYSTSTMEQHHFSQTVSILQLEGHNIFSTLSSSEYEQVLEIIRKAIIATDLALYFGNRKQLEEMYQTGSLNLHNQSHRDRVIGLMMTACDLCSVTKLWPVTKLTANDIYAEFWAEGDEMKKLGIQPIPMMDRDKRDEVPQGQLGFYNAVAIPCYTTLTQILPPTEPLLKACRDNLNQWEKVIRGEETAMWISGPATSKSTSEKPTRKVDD
# Test: The products of Examples 1-175 were tested in the assay described below.PDE10 activity was measured using a scintillation assay (SPA-based method) similar to that previously described by Seeger, T. F. et al., Brain Research 985 (2003) 113-126. The compounds' relative activity as PDE10 inhibitors was investigated by assaying a fixed amount of enzyme in the presence of the test compound and low substrate concentration (cAMP) such that an IC50 could be determined. […] The assay is performed in a 384-well format with 50 uL assay buffer (50 mM TRIS pH 7.5; 1.3 mM MgCl2; 0.01% Brij) containing enough PDE10.
compound,measurement,value
CCc1nn(C)c2c1CN(c1ncnn3c(C)nc(-c4cccc(OC)c4)c13)CC2,IC50,2.7 nM

# Reference: ChEMBL document CHEMBL3638917, “Triazine derivatives” (2015)
